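Test compounds were applied to cells in 96-well plates for 48 hours at 5 doses. TGI: total growth inhibition.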
Columns and labels:
Test in all cases: growth of human tumour cells (NCI), 48 h
LOX IMVI melanoma = tested on: LOX IMVI melanoma
MDA-N = tested on: MDA-N
786-0 renal = tested on: 786-0 renal
UACC-62 melanoma = tested on: UACC-62 melanoma
SR leukemia = tested on: SR leukemia
HL-60(TB) leukemia = tested on: HL-60(TB) leukemia
T-47D breast = tested on: T-47D breast
HCT-15 colon = tested on: HCT-15 colon
UACC-257 melanoma = tested on: UACC-257 melanoma
HOP-62 NSCLC = tested on: HOP-62 NSCLC
A549 NSCLC = tested on: A549 NSCLC
MALME-3M melanoma = tested on: MALME-3M melanoma
RXF 393 renal = tested on: RXF 393 renal
HCT-116 colon = tested on: HCT-116 colon
MOLT-4 leukemia = tested on: MOLT-4 leukemia
ACHN renal = tested on: ACHN renal
MCF7 breast = tested on: MCF7 breast
NCI-H23 lung = tested on: NCI-H23 lung
SNB-19 CNS = tested on: SNB-19 CNS

Row | Structure (SMILES) | TGI (LOX IMVI melanoma) [µM] | TGI (MDA-N) [µM] | TGI (786-0 renal) [µM] | TGI (UACC-62 melanoma) [µM] | TGI (SR leukemia) [µM] | TGI (HL-60(TB) leukemia) [µM] | TGI (T-47D breast) [µM] | TGI (HCT-15 colon) [µM] | TGI (UACC-257 melanoma) [µM] | TGI (HOP-62 NSCLC) [µM] | TGI (A549 NSCLC) [µM] | TGI (MALME-3M melanoma) [µM] | TGI (RXF 393 renal) [µM] | TGI (HCT-116 colon) [µM] | TGI (MOLT-4 leukemia) [µM] | TGI (ACHN renal) [µM] | TGI (MCF7 breast) [µM] | TGI (NCI-H23 lung) [µM] | TGI (SNB-19 CNS) [µM]
1 | O=C1N/C(=N\N=C\c2ccccc2)C2(CCCCC2)O1 | > 100 | > 100 | > 100 | > 100 | 76.4 | > 100 | > 100 | > 100 | > 100 | > 100 | > 100 | > 100 | > 100 | > 100 | > 100 | > 100 | > 100 | > 100 | > 100
2 | CC(C)(C)n1c(=O)n(-c2ccccc2)n(C(C)(C)C)c1=O | > 100 | > 100 | > 100 | > 100 | > 100 | > 100 |  | > 100 | > 100 | > 100 | > 100 | > 100 | > 100 | > 100 | > 100 | > 100 | > 100 | > 100 | > 100
3 | C[C@@H](NC(=O)Cn1c(Cl)nc2ccccc21)c1ccccc1 | > 100 | > 100 | > 100 | > 100 | > 100 | > 100 | > 100 | > 100 | > 100 | > 100 | > 100 | > 100 | > 100 | > 100 | > 100 | > 100 | > 100 | > 100 | > 100
4 | Cc1ccc2c(c1)C=CC1(O2)N(c2ccccc2)C(=S)OC1(C)C (centres undefined) | > 100 | 94.3 | > 100 | > 100 | 78.9 | 31.2 | 20.7 | > 100 | > 100 | > 100 | > 100 |  | > 100 | > 100 | > 100 | > 100 | > 100 | > 100 | > 100
5 | O=C(Cn1c2c(c3ccccc31)CCCC2)N1CCCCC1 | > 100 | > 100 | > 100 | > 100 | > 100 | > 100 |  | > 100 | > 100 | > 100 | > 100 | > 100 |  | > 100 | > 100 | > 100 | > 100 | > 100 | > 100
6 | CC(C)[C@@H]1CC[C@@H](C)C[C@H]1OC(=O)/C=C1\C(C(=O)O[C@@H]2C[C@H](C)CC[C@H]2C(C)C)[C@H]2C=C[C@@H]1O2 (some centres undefined) | > 100 | > 100 | > 100 | > 100 | > 100 | 76.1 | > 100 | > 100 | > 100 | > 100 | > 100 | > 100 | > 100 | > 100 | > 100 | > 100 | 71.6 | > 100 | > 100
7 | CC1(C)OC[C@H](COCOP2(=O)Oc3ccc4ccccc4c3-c3c(ccc4ccccc34)O2)O1 |  | 26.8 | 81.6 | 46.9 | 45.6 | 48.5 | 36.2 | 28.6 |  | 40 | 63.3 | 37.2 |  | 28.3 | 41.4 | 37.3 | 12.2 | 29.6 | 34.7
8 | O=c1[nH]nc(-c2ccccc2)n1-c1cccc([N+](=O)[O-])c1 | > 100 | > 100 | > 100 | > 100 | > 100 |  | > 100 | > 100 | > 100 | > 100 | > 100 | > 100 | > 100 | > 100 | > 100 | > 100 | > 100 | > 100 | > 100
9 | COc1ccc2nc3n(c2c1)C(c1c(F)cccc1F)SC3 (centres undefined) | > 100 | > 100 | > 100 | > 100 | > 100 | 78.7 | > 100 | > 100 | > 100 | > 100 | > 100 |  | > 100 | 75.2 | > 100 | > 100 | > 100 | > 100 | 93.3
10 | CC(=O)NC1CC(C(C)(C)NC(C)=O)CC=C1C (centres undefined) | > 100 | > 100 | > 100 | > 100 | > 100 | > 100 | > 100 | > 100 | > 100 | > 100 | > 100 |  |  | > 100 | > 100 |  | > 100 | > 100 | > 100
11 | CN(C)CCNC(=O)c1cccc2c1Oc1cccc([N+](=O)[O-])c1O2 |  | 31.6 | 42.6 | 33 | 76.1 | 51.7 | 27.9 | > 100 | 35.5 | 30.6 | 35.9 | 28.1 |  | 30.6 | 27.1 | 37.5 | 40.6 | 72.8 | > 100
12 | O=C(O/N=c1/ccc(=O)/c(=N\OC(=O)c2ccccc2)c1=O)c1ccccc1 | > 100 | > 100 | > 100 |  | > 100 | 52.1 | > 100 | > 100 |  | > 100 | > 100 |  | > 100 | > 100 | > 100 | > 100 | > 100 | > 100 | > 100
13 | Cc1ccc(C)n2c1nc1cc3ccccc3cc12 |  | > 100 | > 100 | 57.1 | > 100 | > 100 | > 100 | > 100 | > 100 | > 100 | > 100 | > 100 | > 100 | > 100 | 95.1 | > 100 | 16 | > 100 | > 100

— PubChem BioAssay (NCI)
